In ChEMBL document CHEMBL3217517, “Alkynylation of N-(3-iodopyridin-2-yl)sulfonamide under Pd/CCu catalysis: a direct one pot synthesis of 7-azaindoles and their pharmacological evaluation as potential inhibitors of sirtuins” (Medchemcomm, 2011):

Key:
[1] = biological target: NAD-dependent histone deacetylase SIR2 (Saccharomyces cerevisiae S288c) (UniProt P06700); test: Inhibition of Ura3 gene expressing yeast NAD-dependent HDAC activity of Sir2 assessed as growth inhibition after 24 to 48 hrs by reporter silencing assay in presence of 5-fluoro orotic acid
[2] = biological target: NAD-dependent histone deacetylase SIR2 (Saccharomyces cerevisiae S288c) (UniProt P06700); test: Inhibition of Ura3 gene expressing yeast NAD-dependent HDAC activity of Sir2 assessed as growth inhibition at 50 uM after 24 to 48 hrs by reporter silencing assay in presence of 5-fluoro orotic acid
[3] = biological target: NAD-dependent histone deacetylase SIR2 (Saccharomyces cerevisiae S288c, UniProt P06700); test: Inhibition of Ura3 gene expressing yeast NAD-dependent HDAC activity of Sir2 assessed as growth inhibition after 24 to 48 hrs by reporter silencing assay in absence of 5-fluoro orotic acid
Chain of NAD-dependent histone deacetylase SIR2 (P06700 whole entry): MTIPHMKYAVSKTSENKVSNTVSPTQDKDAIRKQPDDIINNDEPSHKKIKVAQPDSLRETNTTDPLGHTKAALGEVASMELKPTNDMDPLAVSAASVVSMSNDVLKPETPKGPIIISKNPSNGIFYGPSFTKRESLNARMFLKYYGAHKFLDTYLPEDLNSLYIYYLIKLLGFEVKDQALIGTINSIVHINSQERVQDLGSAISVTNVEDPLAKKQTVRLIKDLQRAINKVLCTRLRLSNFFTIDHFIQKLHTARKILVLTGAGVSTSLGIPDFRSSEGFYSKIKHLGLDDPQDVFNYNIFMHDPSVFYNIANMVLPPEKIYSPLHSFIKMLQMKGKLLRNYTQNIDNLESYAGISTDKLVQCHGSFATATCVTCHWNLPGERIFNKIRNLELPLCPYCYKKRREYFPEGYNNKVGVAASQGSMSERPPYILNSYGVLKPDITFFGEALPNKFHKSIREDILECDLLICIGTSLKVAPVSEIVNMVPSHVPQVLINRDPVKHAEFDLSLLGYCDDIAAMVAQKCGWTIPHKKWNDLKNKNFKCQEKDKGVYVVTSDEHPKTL

Chain of NAD-dependent histone deacetylase SIR2 (Saccharomyces cerevisiae S288c) (P06700 whole entry): as above

Row | SMILES | inhibition [1] | inhibition [2] [%] | Activity [3]
1 | CS(=O)(=O)n1c(-c2ccccc2)cc2cccnc21 | Dose-dependent effect | 40 | Non-toxic
2 | CCCCCc1cc2cccnc2n1S(=O)(=O)c1ccccc1 | – | 10 | –
3 | O=S(=O)(c1ccccc1)n1c(CCCCl)cc2cccnc21 | – | 12 | –
4 | O=S(=O)(c1ccccc1)n1c(CO)cc2cccnc21 | – | – | Non-toxic
5 | CC(C)(C)c1cc2cccnc2n1S(=O)(=O)c1ccccc1 | – | 42 | Non-toxic
6 | O=S(=O)(c1ccccc1)n1c(-c2ccccc2)cc2cccnc21 | – | 37 | –
7 | N#CCCCc1cc2cccnc2n1S(=O)(=O)c1ccccc1 | – | 10 | –
8 | CC(O)c1cc2cccnc2n1S(=O)(=O)c1ccccc1 (configuration not stated) | – | 30 | –
9 | O=S(=O)(c1ccccc1)n1c(CCO)cc2cccnc21 | – | 15 | –
